US12582687B2, “Composition based on Crocus sativus and Cannabis sativa” (priority 2021, dated 2026)
Like-named read-outs stand apart in the source and are kept apart here.

Tests used:
[1] = molecular target: acetylcholinesterase (AchE) (Homo sapiens, UniProt P22303); assay: Acetylcholinesterase activity, in vitro colorimetric Ellman method; format: biochemical; details: AchE 0.22 U/ml, ATCl 1 mM, 20 min
Text: The aim of this assay is to compare acetylcholinesterase (AchE) activity in the presence of the composition according to the invention, with a safranal/cannabidiol (CBD) ratio of 0.03, with acetylcholinesterase activity in the presence of safranal or CBD alone.
AchE activity was monitored and measured in vitro by colorimetric reaction using the Ellman method. Acetylthiocholine (ATCl) is degraded to thiocholine and acetic acid by AChE. The thiocholine then reacts with the dithiobisnitrobenzoic ion (DTNB) and the resulting ion (TNB) gives a yellow coloration. In a 96-well plate, the following amounts were deposited in each well: 55 μl buffer (Tris-HCl 50 mM), 75 μl DTNB (5 mM), 25 μl AchE (0.22 U/ml), 25 μl test sample (buffer or safranal (1.2 μg/ml), or CBD (40 μg/ml), or safranal (1.2 μg/ml)+CBD (40 μg/ml).
At the last moment, 25 μL of ATCl (1 mM) was added to initiate the reaction. The absorbance was then monitored at 405 nM for 20 min. For each well, the absorbance values over time (Ax) are normalized relative to the first absorbance measurement (AT0) according to the following formula: Normalized absorbance (An)=Ax−AT0. The percentage of AchE inhibition was determined by comparing the slopes of the curves (in the linear part) against the control according to the following equation [Math 1]. […]

[2] = tested on: anxiety symptoms in healthy adults under stress; details: CBD alone without THC, cited from earlier work

acetylcholinesterase (AchE), sequence (P22303 32-614, species assumed): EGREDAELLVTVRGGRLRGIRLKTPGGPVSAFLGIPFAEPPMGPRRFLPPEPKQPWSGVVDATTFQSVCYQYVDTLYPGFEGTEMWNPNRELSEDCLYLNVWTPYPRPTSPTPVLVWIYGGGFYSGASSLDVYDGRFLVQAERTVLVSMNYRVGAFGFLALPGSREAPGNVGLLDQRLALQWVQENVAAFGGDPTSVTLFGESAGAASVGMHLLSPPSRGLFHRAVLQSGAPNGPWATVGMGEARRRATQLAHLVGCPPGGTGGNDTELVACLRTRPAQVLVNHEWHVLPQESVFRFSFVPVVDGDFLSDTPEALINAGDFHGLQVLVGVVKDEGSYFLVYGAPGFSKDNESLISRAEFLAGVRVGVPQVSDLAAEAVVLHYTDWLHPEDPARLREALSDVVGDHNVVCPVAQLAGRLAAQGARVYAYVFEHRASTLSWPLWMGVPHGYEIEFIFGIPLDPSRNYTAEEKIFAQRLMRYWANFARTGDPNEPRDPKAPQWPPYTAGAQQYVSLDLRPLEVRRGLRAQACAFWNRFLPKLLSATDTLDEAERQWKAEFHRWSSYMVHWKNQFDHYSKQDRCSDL

Row | Structure (SMILES) | inhibition at 40 µg/mL ([1]; CBD 40 μg/ml test sample, read-out: decrease in AchE activity (percentage of AchE inhibition relative to control)) | effect on anxiety symptoms ([2]; dose 300 mg) | effect on anxiety symptoms ([2]; higher dose 900 mg) | effect on anxiety symptoms ([2]; lower dose 100 mg) | AchE activity compared with the control ([1]; safranal 1.2 μg/ml test sample)
1 | C=C(C)[C@@H]1CCC(C)=C[C@H]1c1c(O)cc(CCCCC)cc1O [CBD, 2-[(1R,6R)-6-isopropenyl-3-methylcyclohex-2-en-1-yl]-5-pentylbenzene-1,3-diol] | 69.8% | reducing anxiety symptoms | no effect | no effect | –
2 | CC1=C(C=O)C(C)(C)CC=C1 [safranal] | – | – | – | – | unchanged
